The source of these data is ChEMBL document CHEMBL5465560, “Selectivity Literature for EUbOPEN Chemogenomic Library” (2024).

The target in assay [1] is Phosphatidylinositol 4-phosphate 5-kinase type-1 gamma (Homo sapiens) (UniProt O60331). Briefly: Selectivity interaction (Ambit KINOMEscan and KiNATiv profiling in Jurkat cells) EUB0000090b PIP5K1C. To be noted: at 1 µM. Format: cell-based.
In assay [2] the target is SRSF protein kinase 2 (Homo sapiens) (UniProt P78362). Description: Selectivity interaction (SelectScreen profiling (Invitrogen)) EUB0000607a SRPK2. To be noted: at 2 µM.
In assay [3] the target is Mitogen-activated protein kinase kinase kinase 11 (Homo sapiens) (UniProt Q16584). Briefly: Selectivity interaction (Kinase panel (Invitrogen)) EUB0000639a MAP3K11. To be noted: at 200 nM.
The target in assay [4] is Cyclin-dependent kinase 2/cyclin A (Homo sapiens) (UniProt P24941+P20248+P78396). Briefly: (§1) Selectivity interaction (Millipore kinase profiler) EUB0000124b CDK2. Format: protein-complex assay. To be noted: at 10 µM.
Assay [5] deals with Cyclin-dependent kinase 2/cyclin E (Homo sapiens) (UniProt P24864+P24941+O96020). Described as §1. It is filed as protein-complex assay. As to conditions: at 10 µM.
Assay [6] addresses T1, Mitogen-activated protein kinase kinase kinase 5 (Homo sapiens) (UniProt Q99683).
T1 sequence (whole entry): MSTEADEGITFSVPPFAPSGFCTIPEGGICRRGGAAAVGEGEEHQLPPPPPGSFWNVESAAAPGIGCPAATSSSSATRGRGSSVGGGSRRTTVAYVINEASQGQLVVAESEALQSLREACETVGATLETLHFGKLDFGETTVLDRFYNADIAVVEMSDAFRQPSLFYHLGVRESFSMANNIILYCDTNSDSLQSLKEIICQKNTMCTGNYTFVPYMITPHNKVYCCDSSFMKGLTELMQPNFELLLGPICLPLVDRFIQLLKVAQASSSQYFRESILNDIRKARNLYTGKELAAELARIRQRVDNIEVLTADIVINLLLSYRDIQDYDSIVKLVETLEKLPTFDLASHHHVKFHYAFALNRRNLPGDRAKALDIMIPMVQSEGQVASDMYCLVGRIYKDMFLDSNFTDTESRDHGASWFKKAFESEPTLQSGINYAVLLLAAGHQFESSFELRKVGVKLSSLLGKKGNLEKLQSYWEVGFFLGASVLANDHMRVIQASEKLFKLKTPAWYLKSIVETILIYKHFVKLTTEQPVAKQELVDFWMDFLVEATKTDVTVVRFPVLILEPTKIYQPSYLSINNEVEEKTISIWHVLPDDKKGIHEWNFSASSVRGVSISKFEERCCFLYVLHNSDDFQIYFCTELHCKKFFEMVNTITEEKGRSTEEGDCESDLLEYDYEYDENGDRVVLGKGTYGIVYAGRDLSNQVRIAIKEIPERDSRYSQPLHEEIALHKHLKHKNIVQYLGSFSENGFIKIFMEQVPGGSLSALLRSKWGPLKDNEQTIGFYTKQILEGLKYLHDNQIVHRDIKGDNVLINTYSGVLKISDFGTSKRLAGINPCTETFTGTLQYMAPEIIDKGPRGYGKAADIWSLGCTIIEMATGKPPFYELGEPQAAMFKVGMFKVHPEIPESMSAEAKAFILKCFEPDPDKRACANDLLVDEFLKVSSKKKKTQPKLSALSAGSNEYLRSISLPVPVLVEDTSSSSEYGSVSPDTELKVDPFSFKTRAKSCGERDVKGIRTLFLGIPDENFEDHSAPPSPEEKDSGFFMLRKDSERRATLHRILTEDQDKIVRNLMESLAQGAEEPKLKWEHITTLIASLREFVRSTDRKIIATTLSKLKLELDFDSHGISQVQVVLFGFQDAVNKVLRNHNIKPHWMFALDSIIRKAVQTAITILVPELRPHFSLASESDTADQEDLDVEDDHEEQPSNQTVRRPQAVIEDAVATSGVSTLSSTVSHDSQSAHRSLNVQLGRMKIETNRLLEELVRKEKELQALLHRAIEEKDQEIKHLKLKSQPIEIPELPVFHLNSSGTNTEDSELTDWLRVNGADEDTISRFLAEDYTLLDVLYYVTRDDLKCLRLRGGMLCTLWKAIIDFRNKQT
Description: Selectivity interaction (ProQinase) EUB0000171b MAP3K5.

The target of assay [7] is Myosin light chain kinase, smooth muscle (Homo sapiens, UniProt Q15746). Briefly: Selectivity interaction (ProQinase) EUB0000171b MYLK.
The target in assay [8] is T2, Alpha-1A adrenergic receptor (Homo sapiens) (UniProt P35348).
T2 sequence (whole entry): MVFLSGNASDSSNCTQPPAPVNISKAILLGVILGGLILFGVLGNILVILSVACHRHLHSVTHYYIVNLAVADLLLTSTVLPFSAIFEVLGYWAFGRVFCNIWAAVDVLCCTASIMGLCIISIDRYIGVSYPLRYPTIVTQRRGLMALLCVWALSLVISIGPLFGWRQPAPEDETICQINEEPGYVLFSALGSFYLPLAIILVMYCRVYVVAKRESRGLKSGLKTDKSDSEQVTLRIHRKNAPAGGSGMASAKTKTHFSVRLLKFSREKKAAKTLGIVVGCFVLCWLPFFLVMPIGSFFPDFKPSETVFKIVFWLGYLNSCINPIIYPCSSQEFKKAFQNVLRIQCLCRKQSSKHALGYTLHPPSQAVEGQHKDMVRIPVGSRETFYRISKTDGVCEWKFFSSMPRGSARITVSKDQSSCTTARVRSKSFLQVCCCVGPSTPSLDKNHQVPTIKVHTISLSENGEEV
Description: Selectivity interaction (Eurofins CEREP Diversity Profile (receptors and ion channels)) EUB0000279b ADRA1A. To be noted: at 10 µM.

Myosin light chain kinase, smooth muscle, sequence (Q15746 whole entry): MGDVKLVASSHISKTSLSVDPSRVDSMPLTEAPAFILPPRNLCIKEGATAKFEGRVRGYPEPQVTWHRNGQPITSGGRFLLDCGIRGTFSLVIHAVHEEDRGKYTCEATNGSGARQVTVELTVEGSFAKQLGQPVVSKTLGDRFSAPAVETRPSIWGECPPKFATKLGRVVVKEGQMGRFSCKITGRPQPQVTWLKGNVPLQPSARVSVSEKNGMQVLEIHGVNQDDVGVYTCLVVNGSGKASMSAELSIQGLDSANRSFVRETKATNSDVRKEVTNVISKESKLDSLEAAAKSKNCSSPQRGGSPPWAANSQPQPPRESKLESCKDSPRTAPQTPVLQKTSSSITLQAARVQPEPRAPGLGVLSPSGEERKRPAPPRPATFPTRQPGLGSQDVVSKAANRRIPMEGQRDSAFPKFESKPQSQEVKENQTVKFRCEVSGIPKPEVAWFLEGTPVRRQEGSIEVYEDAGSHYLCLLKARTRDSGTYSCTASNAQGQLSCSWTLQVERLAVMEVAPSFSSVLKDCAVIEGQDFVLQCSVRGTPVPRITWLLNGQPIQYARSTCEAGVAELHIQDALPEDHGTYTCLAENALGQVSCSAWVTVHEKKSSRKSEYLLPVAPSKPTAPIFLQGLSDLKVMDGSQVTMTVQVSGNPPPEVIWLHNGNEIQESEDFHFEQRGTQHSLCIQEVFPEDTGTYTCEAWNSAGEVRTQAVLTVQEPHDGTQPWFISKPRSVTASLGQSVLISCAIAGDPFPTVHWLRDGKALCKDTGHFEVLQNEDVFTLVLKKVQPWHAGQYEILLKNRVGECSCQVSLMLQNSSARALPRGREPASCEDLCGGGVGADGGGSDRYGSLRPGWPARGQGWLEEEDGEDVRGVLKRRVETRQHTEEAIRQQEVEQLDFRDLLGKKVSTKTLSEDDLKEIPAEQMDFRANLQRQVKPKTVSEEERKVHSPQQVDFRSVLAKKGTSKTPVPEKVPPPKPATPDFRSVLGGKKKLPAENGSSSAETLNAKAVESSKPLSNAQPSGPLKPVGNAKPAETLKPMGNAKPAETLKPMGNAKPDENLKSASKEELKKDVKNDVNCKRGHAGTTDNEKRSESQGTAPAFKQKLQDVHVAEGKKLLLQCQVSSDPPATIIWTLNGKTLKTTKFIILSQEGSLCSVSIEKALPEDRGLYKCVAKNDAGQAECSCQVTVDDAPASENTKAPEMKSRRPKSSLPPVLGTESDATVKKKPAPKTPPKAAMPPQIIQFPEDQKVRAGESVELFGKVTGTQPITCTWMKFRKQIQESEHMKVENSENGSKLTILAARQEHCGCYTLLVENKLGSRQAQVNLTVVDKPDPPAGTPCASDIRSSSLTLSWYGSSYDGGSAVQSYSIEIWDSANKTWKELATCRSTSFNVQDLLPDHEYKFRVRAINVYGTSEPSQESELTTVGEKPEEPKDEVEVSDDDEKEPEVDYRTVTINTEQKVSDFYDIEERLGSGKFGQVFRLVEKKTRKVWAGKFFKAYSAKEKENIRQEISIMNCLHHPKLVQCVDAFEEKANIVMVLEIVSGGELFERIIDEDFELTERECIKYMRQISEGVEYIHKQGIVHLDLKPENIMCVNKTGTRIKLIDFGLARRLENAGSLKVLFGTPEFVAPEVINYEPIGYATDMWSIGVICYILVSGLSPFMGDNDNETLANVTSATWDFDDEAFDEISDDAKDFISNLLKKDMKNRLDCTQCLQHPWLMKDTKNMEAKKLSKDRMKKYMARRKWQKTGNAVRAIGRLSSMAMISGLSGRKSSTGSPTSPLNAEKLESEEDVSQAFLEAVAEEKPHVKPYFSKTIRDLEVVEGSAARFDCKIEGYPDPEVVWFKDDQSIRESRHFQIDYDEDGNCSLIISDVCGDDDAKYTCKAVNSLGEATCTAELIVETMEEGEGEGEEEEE
SRSF protein kinase 2 (Homo sapiens), sequence (P78362 whole entry, looked up): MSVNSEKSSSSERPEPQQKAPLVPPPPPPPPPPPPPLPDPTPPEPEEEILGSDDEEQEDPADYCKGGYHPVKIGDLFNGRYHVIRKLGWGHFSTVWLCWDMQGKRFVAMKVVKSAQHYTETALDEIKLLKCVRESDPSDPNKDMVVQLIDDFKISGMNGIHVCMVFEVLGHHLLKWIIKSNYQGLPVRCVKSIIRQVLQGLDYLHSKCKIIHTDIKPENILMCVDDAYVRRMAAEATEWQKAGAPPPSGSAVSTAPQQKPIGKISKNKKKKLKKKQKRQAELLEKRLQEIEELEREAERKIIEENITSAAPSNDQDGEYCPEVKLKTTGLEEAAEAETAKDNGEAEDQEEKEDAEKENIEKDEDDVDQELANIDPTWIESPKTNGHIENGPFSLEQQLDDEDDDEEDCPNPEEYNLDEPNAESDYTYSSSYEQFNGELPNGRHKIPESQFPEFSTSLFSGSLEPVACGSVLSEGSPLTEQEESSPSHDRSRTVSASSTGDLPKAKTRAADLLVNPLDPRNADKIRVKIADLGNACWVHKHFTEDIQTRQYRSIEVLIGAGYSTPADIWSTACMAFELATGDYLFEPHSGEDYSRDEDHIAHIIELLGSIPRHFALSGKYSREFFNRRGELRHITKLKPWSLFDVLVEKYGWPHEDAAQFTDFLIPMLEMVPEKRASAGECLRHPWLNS
Mitogen-activated protein kinase kinase kinase 11 (Homo sapiens), sequence (Q16584 whole entry, looked up): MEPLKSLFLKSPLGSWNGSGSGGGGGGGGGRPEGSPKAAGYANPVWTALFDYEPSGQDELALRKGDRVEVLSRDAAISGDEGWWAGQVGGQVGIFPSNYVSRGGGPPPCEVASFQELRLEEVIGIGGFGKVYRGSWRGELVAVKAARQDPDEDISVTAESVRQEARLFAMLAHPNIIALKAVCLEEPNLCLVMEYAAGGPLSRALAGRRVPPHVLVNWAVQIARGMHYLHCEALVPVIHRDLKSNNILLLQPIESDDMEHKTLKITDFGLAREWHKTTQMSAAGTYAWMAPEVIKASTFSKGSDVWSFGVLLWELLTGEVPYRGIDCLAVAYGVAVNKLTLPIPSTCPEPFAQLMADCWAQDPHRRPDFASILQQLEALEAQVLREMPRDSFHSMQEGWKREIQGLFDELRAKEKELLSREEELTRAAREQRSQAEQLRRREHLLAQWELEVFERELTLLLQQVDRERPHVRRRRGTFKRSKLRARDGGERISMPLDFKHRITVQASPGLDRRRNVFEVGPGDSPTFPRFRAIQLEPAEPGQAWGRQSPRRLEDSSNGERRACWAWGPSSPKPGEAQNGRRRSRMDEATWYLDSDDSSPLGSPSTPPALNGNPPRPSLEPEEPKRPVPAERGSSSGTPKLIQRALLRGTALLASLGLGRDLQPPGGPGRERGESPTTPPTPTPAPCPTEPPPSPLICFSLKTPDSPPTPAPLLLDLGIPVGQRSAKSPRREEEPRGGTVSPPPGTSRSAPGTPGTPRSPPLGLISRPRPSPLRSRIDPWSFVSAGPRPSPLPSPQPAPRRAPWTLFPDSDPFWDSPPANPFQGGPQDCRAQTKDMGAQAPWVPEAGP
Phosphatidylinositol 4-phosphate 5-kinase type-1 gamma (Homo sapiens), sequence (O60331 whole entry): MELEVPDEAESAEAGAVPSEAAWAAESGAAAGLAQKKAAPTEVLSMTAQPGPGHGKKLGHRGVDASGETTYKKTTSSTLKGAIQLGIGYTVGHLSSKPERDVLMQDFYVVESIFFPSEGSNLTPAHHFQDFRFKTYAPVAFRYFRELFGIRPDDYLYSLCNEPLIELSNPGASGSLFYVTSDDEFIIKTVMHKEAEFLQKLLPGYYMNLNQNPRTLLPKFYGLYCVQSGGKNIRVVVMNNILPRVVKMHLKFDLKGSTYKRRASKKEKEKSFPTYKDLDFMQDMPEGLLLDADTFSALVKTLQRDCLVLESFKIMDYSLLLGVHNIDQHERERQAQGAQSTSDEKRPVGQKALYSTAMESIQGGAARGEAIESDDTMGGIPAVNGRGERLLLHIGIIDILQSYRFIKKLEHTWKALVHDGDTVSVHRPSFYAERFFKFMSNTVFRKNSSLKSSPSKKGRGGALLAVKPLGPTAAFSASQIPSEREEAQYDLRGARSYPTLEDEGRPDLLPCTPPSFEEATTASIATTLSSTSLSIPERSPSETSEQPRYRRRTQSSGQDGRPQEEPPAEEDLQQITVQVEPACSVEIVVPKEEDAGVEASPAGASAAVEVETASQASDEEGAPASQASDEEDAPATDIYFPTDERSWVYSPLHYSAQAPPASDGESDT

Compound `CN(C)C/C=C/C(=O)Nc1ccc(C(=O)N2CCCC(Nc3ncc(Cl)c(-c4c[nH]c5ccccc45)n3)C2)cc1` (stereo not given) gave a % of control in assay [1] of 100%.

As to `CNC(=O)Nc1ccc(-c2nc(N3CC4CCC(C3)O4)c3cnn(C4CCC5(CC4)OCCO5)c3n2)cc1`, in assay [2], the % of inhibition was determined as 1%.

As to `CC[C@@H]1[C@H](F)C(=O)N[C@@H]1COc1nccc2cc(C(N)=O)c(OC)cc12` [ZIMLOVISERTIB], the % of inhibition in assay [3] was found to be 0.995%.

As to `CC(=O)Nc1cccc(-n2c(=O)n(C3CC3)c(=O)c3c(Nc4ccc(I)cc4F)n(C)c(=O)c(C)c32)c1`, the % of control was 101% in assay [4] and 104% in assay [5].

As to `C=CC(=O)Nc1cccc(C(=O)Nc2ccc(Nc3cc(-c4[nH]c(SC)nc4C)ccn3)cc2)c1`, the % of control worked out at 92% in assay [6] (at 1 µM), 95% in assay [6] (at 5 µM), 84% in assay [7] (at 1 µM) and 60% in assay [7] (at 5 µM).

With `CC(=O)c1cc(-c2ccccc2OCC2CC2)c2ncccn12`, the % of control in assay [8] stood at 94%.
